Data as given in patent publication US20250376461A1, “INDAZOLE DERIVATIVES FOR TREATING TRPM3-MEDIATED DISORDERS” (Katholieke Universiteit Leuven, priority 2022, published 2025).

target: T1, mouse TRPM3α2 (mTRPM3) ion channel (Mus musculus, UniProt J9SQF3); assay: TRPM3 ion channel driven Ca2+ uptake, Fluo-4 AM assay, mTRPM3alpha2 overexpressing flip-in HEK293 cells stimulated with pregnenolone sulfate (50 μM); assay type: cell-based; settings: mTRPM3 overexpressing HEK293 cells stimulated with pregnenolone sulfate (50 μM), activity ranges A, B, C
T1 construct: expressed in transfected cells; host or cells: flip-in HEK293
Description: Monitoring the TRPM3 Ion Channel Driven Ca2+ Uptake.
In order to monitor the inhibition of the mouse TRPM3α2 (mTRPM3) ion channel by the compounds of the invention, a cellular system making use of an mTRPM3alpha2 or hTRPM3 overexpressing cell line (flip-in HEK293) was used. The TRPM3 channel was stimulated/opened with Pregnenolone sulfate (PS) (50 μM) which results in Ca^2+ influx.
For mTRPM3, the intracellular Ca^2+ was measured with a Calcium responsive dye, Fluor-4 AM ester (Invitrogen). Cells were cultured until a confluence of 80-90%, washed with Versene (Invitrogen) and detached from the surface by a short incubation with 0.05% Trypsin (Invitrogen). The trypsination process was stopped by the addition of complete cell culture medium (DMEM, glutamax, 10% FCS, NEAA, Pen-Strep). Cells were collected and resuspended in Krebs buffer without Calcium at RT.
Prior the cell seeding (±2000 cells/well into a black, 384 well plate (Greiner)) the diluted compound was added in the assay plate, together with the PS dissolved in Krebs buffer containing Calcium. […] Directly after cell addition the plates were read on an Envision fluorescence reader (Perkin Elmer) by an Excitation of 485 nm and emission at 535 nm.
Channel inhibition was calculated compared to a non-PS stimulated control versus a condition stimulated with PS (50 μM) with vehicle. The ability of the compounds of the invention to inhibit this activity was determined as: Percentage inhibition=[1−((RFU determined for sample with test compound present−RFU determined for sample with positive control inhibitor) divided by (RFU determined in the presence of vehicle−RFU determined for sample with positive control inhibitor))]*100.
The activities of the Example compounds cpd 001-262 tested are depicted in the table below. All tested compounds show an activity in the Fluo-4 AM assay. The activity ranges A, B and C refer to IC50 values in the Fluo-4 AM assay as follows: “A”: IC50<1 μM; “B”: 1 μM≤IC50≤20 μM and “C”: IC50>20 μM.

T1 sequence (J9SQF3 1-1709 isoform J9SQF3-12): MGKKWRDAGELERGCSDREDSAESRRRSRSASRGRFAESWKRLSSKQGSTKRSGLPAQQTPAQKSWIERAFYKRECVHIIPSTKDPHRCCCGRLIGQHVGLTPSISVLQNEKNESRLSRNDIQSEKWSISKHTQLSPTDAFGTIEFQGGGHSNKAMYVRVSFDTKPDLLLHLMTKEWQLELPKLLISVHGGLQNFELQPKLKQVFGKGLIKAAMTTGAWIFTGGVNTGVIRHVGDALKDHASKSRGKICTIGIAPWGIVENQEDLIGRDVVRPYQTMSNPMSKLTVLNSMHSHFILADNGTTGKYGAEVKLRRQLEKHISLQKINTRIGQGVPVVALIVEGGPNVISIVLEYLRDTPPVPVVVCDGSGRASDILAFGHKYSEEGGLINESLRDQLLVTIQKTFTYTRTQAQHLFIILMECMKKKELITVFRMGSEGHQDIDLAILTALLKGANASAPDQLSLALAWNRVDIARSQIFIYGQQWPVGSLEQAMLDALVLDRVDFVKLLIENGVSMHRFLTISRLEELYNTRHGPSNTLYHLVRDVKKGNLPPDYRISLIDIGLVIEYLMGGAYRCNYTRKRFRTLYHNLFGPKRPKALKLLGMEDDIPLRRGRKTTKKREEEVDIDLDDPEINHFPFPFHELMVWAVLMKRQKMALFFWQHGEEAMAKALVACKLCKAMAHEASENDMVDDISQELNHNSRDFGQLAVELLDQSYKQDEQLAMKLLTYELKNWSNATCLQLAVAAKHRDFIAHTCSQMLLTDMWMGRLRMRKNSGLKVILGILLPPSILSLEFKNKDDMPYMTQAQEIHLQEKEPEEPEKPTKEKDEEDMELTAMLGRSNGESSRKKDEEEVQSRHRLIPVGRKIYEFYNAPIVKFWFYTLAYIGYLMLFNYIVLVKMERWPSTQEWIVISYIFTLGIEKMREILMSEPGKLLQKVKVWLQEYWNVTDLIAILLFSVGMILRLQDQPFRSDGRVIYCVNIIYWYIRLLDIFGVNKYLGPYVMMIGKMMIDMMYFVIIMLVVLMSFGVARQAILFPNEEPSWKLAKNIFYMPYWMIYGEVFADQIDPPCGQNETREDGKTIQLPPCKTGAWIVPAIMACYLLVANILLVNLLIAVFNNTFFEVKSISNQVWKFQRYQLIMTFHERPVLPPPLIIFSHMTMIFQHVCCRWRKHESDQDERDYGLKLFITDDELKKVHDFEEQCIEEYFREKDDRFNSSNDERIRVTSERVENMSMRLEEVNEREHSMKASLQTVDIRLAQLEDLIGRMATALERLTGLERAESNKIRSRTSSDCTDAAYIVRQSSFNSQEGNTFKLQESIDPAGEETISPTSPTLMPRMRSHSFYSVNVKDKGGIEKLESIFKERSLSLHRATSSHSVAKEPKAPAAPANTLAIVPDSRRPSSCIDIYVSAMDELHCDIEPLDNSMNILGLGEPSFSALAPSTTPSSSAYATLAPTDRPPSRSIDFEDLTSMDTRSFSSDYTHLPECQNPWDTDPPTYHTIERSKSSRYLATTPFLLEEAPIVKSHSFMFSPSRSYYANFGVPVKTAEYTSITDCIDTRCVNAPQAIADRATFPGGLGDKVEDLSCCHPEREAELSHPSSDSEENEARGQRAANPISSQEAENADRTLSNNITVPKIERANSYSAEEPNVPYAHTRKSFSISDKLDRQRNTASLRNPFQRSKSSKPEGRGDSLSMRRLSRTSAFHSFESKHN

SMILES	IC50
CCn1nc2ccc(OCc3ccccn3)cc2c1C(=O)NC(C)(CO)C(N)=O (single isomer, unassigned) [Cpd 188 - En2, 2-({2-ethyl-5-[(pyridin-2-yl)methoxy]-2H-indazol-3-yl}formamido)-3-hydroxy-2-methylpropanamide]	< 1000 nM
Cn1nc2ccc(OCc3cccnc3)cc2c1C(=O)NC(C)(CO)C(N)=O (single isomer, unassigned) [Cpd 190 - En1]	1000 to 20000 nM
Cn1nc2ccc(OCc3cccnc3)cc2c1C(=O)NC(C)(CO)C(N)=O (single isomer, unassigned) [Cpd 190 - En2]	< 1000 nM
Cn1nc2ccc(OCc3ccccc3C(F)F)cc2c1C(=O)NC(C)(CO)C(N)=O (single isomer, unassigned) [Cpd 191 - En1]	< 1000 nM
Cn1nc2ccc(OCc3ccccc3C(F)F)cc2c1C(=O)NC(C)(CO)C(N)=O (single isomer, unassigned) [Cpd 191 - En2]	< 1000 nM
CN(C)C(=O)C(C)(CO)NC(=O)c1c2cc(OCc3cccnc3C(F)(F)F)ccc2nn1C (single isomer, unassigned) [Cpd 193 - En1, 3-hydroxy-N,N,2-trimethyl-2-[(2-methyl-5-{[2-(trifluoromethyl)pyridin-3-yl]methoxy}-2H-indazol-3-yl)formamido]propanamide]	1000 to 20000 nM
CN(C)C(=O)C(C)(CO)NC(=O)c1c2cc(OCc3cccnc3C(F)(F)F)ccc2nn1C (single isomer, unassigned) [Cpd 193 - En2, 3-hydroxy-N,N,2-trimethyl-2-[(2-methyl-5-{[2-(trifluoromethyl)pyridin-3-yl]methoxy}-2H-indazol-3-yl)formamido]propanamide]	> 20000 nM
Cn1nc2ccc(OCc3ccccc3F)cc2c1C(=O)NC(C)(CO)C(N)=O (single isomer, unassigned) [Cpd 194 - En1]	< 1000 nM
Cn1nc2ccc(OCc3ccccc3F)cc2c1C(=O)NC(C)(CO)C(N)=O (single isomer, unassigned) [Cpd 194 - En2]	< 1000 nM
Cc1ncc(COc2ccc3nn(C(C)C)c(C(=O)NC(C)(CO)C(N)=O)c3c2)s1 (single isomer, unassigned) [Cpd 195 - En1]	> 20000 nM
Cc1ncc(COc2ccc3nn(C(C)C)c(C(=O)NC(C)(CO)C(N)=O)c3c2)s1 (single isomer, unassigned) [Cpd 195 - En2]	< 1000 nM
Cn1nc2ccc(OCc3ccccn3)cc2c1C(=O)NC(C)(CO)CC(F)F (single isomer, unassigned) [Cpd 201 - En1, N-(4,4-difluoro-1-hydroxy-2-methylbutan-2-yl)-2-methyl-5-[(pyridin-2-yl)methoxy]-2H-indazole-3-carboxamide]	< 1000 nM
Cn1nc2ccc(OCc3ccccn3)cc2c1C(=O)NC(C)(CO)CC(F)F (single isomer, unassigned) [Cpd 201 - En2, N-(4,4-difluoro-1-hydroxy-2-methylbutan-2-yl)-2-methyl-5-[(pyridin-2-yl)methoxy]-2H-indazole-3-carboxamide]	< 1000 nM
Cn1nc2ccc(OCc3cccnc3C(F)(F)F)cc2c1C(=O)NC(C)(CO)CC(F)F (single isomer, unassigned) [Cpd 202 - En1]	< 1000 nM
Cn1nc2ccc(OCc3cccnc3C(F)(F)F)cc2c1C(=O)NC(C)(CO)CC(F)F (single isomer, unassigned) [Cpd 202 - En2]	< 1000 nM
Cn1nc2ccc(OCc3ccccc3F)cc2c1C(=O)NC(C)(CO)CC(F)F (single isomer, unassigned) [Cpd 203 - En1]	< 1000 nM
Cn1nc2ccc(OCc3ccccc3F)cc2c1C(=O)NC(C)(CO)CC(F)F (single isomer, unassigned) [Cpd 203 - En2]	< 1000 nM
Cc1ncsc1COc1ccc2nn(C)c(C(=O)NC3CNCCC3(F)F)c2c1 (single isomer, unassigned) [Cpd 211 - En1, N-(4,4-difluoropiperidin-3-yl)-2-methyl-5-[(4-methyl-1,3-thiazol-5-yl)methoxy]-2H-indazole-3-carboxamide]	1000 to 20000 nM
Cc1ncsc1COc1ccc2nn(C)c(C(=O)NC3CNCCC3(F)F)c2c1 (single isomer, unassigned) [Cpd 211 - En2, N-(4,4-difluoropiperidin-3-yl)-2-methyl-5-[(4-methyl-1,3-thiazol-5-yl)methoxy]-2H-indazole-3-carboxamide]	< 1000 nM

SMILES	IC50
Cn1nc2ccc(OCc3ccccn3)cc2c1C(=O)NC1CNCCC1(F)F (single isomer, unassigned) [Cpd 212 - En1, N-(4,4-difluoropiperidin-3-yl)-2-methyl-5-[(pyridin-2-yl)methoxy]-2H-indazole-3-carboxamide]	1000 to 20000 nM
Cn1nc2ccc(OCc3ccccn3)cc2c1C(=O)NC1CNCCC1(F)F (single isomer, unassigned) [Cpd 212 - En2, N-(4,4-difluoropiperidin-3-yl)-2-methyl-5-[(pyridin-2-yl)methoxy]-2H-indazole-3-carboxamide]	> 20000 nM
Cc1ncsc1COc1ccc2nn(C)c(C(=O)NC3CNCC(F)(F)C3)c2c1 (single isomer, unassigned) [Cpd 213 - En1]	1000 to 20000 nM
Cc1ncsc1COc1ccc2nn(C)c(C(=O)NC3CNCC(F)(F)C3)c2c1 (single isomer, unassigned) [Cpd 213 - En2]	> 20000 nM
Cn1nc2ccc(OCc3ccccn3)cc2c1C(=O)NC1CNCC(F)(F)C1 (single isomer, unassigned) [Cpd 214 - En1]	> 20000 nM
Cn1nc2ccc(OCc3ccccn3)cc2c1C(=O)NC1CNCC(F)(F)C1 (single isomer, unassigned) [Cpd 214 - En2]	1000 to 20000 nM
Cc1ncsc1COc1ccc2nn(C)c(C(=O)NC3CCNC3)c2c1 (single isomer, unassigned) [Cpd 215 - En1]	> 20000 nM
Cc1ncsc1COc1ccc2nn(C)c(C(=O)NC3CCNC3)c2c1 (single isomer, unassigned) [Cpd 215 - En2]	1000 to 20000 nM
Cn1nc2ccc(OCc3ccccn3)cc2c1C(=O)NC1CCNC1 (single isomer, unassigned) [Cpd 216 - En1]	> 20000 nM
Cn1nc2ccc(OCc3ccccn3)cc2c1C(=O)NC1CCNC1 (single isomer, unassigned) [Cpd 216 - En2]	1000 to 20000 nM
Cn1nc2ccc(OCc3ccccn3)cc2c1C(=O)NC(CO)c1ccc(F)cc1 (single isomer, unassigned) [Cpd 220 - En1]	> 20000 nM
Cn1nc2ccc(OCc3ccccn3)cc2c1C(=O)NC(CO)c1ccc(F)cc1 (single isomer, unassigned) [Cpd 220 - En2]	> 20000 nM
Cn1nc2ccc(OCc3ccccn3)cc2c1C(=O)NC(CO)c1ccccn1 (single isomer, unassigned) [Cpd 221 - En1]	1000 to 20000 nM
Cn1nc2ccc(OCc3ccccn3)cc2c1C(=O)NC(CO)c1ccccn1 (single isomer, unassigned) [Cpd 221 - En2]	1000 to 20000 nM
Cn1nc2ccc(OCc3ccccn3)cc2c1C(=O)NC(CCO)c1ccc(F)cc1 (single isomer, unassigned) [Cpd 223 - En1]	> 20000 nM
Cn1nc2ccc(OCc3ccccn3)cc2c1C(=O)NC(CCO)c1ccc(F)cc1 (single isomer, unassigned) [Cpd 223 - En2]	> 20000 nM
Cn1nc2ccc(OCc3ccccn3)cc2c1C(=O)NC(CO)CC(F)(F)F (single isomer, unassigned) [Cpd 226-En1]	< 1000 nM
Cn1nc2ccc(OCc3ccccn3)cc2c1C(=O)NC(CO)CC(F)(F)F (single isomer, unassigned) [Cpd 226-En2]	> 20000 nM
